How the values were obtained:
Assay type in all cases: in vivo
[1] = test system: Echinochloa crus-galli var. formosensis; assay: Test Example 1: herbicidal effect test by soil application in paddy rice; details: 120 g active ingredient per 10 ares, applied immediately after sowing, flooded pots, 14 days after application; for pest or weed control at 1200 g/ha: Echinochloa crus-galli, soil, 336 h, read-out: weed inhibition rate
Summary of the method: (§1)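 Flooded-pot paddy assay: sow at 0–1 cm, flood to about 3 cm, then apply diluted emulsifiable concentrate by dropper, 120 g a.i. per 10 ares; greenhouse-grown.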

[2] = test system: Echinochloa crus-galli var. formosensis; assay: Test Example 2: herbicidal effect test by application during growth period of paddy rice; details: 120 g per 10 ares, applied seven days after sowing, flooded pots, 14 days after application; for inhibition at 1200 g/ha: Echinochloa crus-galli, read-out: weed inhibition rate
Summary of the method: (§2)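 Paddy soil in flooded pots (water depth about 3 cm) was sown with weed seeds and kept in a glass greenhouse. Seven days after sowing, a diluted emulsifiable concentrate was applied by dropper at 120 g active ingredient per 10 ares. Weed inhibition was evaluated 14 days after application, in duplicate.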

Digitaria ciliaris [3] = assay: Test Example 3: herbicidal effect test by soil application in upland field; details: 120 g per 10 ares, sprayed one day after sowing, 14 days after application; for inhibition at 1200 g/ha: Digitaria ciliaris, read-out: weed inhibition rate
Summary of the method: (§3)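 Weed inhibition (%) was assessed 14 days after treatment, in duplicate per concentration group. Seeds had been mixed into the upper 1 cm of upland alluvial loam, and the soil surface was sprayed one day later with the diluted emulsifiable concentrate at 120 g active ingredient per 10 ares.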

Echinochloa crus-galli [4] = assay: as above; details: 120 g per 10 ares, sprayed one day after sowing, 14 days after application; for inhibition at 1200 g/ha: Echinochloa crus-galli, read-out: weed inhibition rate
Summary of the method: as §3

Digitaria ciliaris [5] = assay: Test Example 4: herbicidal effect test by stem and leaf treatment in upland field; details: 120 g per 10 ares, sprayed seven days after sowing, upland soil, 14 days after application; for inhibition at 1200 g/ha: Digitaria ciliaris, read-out: weed inhibition rate
Echinochloa crus-galli [6] = assay: as above; details: 120 g per 10 ares, sprayed seven days after sowing, upland soil, 14 days after application; for inhibition at 1200 g/ha: Echinochloa crus-galli, read-out: weed inhibition rate
[7] = test system: Echinochloa crus-galli var. formosensis; assay: Test Example 5: herbicidal effect test by soil application in paddy rice (low dose); details: Echinochloa crus-galli, soil, 336 h; 7.5 g per 10 ares; applied immediately after sowing, flooded pots; 14 days after application; read-out: weed inhibition rate
Method: (§4) The present test was conducted in duplicate for each chemical concentration group, and the weed inhibition rate (%) was determined 14 days after chemical application using the following formula (Math. 1). [formula]
Wagner pots with an area of […] were filled with paddy soil, followed by addition of water and incorporation of chemical fertilizer (N:P:K = 16:16:16), after which puddling was performed. After that, seeds of Echinochloa crus-galli var. formosensis, broad-leaved weeds (Monochoria vaginalis), and Scirpus juncoides were sown at a depth of 0 cm to 1 cm, 30 seeds each. Immediately after sowing, the pots were flooded and a water depth of approximately 3 cm was maintained. Subsequent management was conducted in a glass greenhouse. Immediately thereafter, an emulsifiable concentrate prepared according to Formulation Example 5 using the compound shown below was diluted with water, and a specified amount of the diluted solution was applied by dropper. The amount of the active ingredient to be applied was equivalent to 7.5 g per 10 ares. […]

Echinochloa crus-galli [8] = assay: Test Example 8: herbicidal effect test by stem and leaf treatment in upland field (low dose); details: Echinochloa crus-galli; 7.5 g per 10 ares; sprayed seven days after sowing, upland soil; 14 days after application; read-out: weed inhibition rate
Method: as §4
(§5) Pots with an area of 36 cm^2 were filled with upland soil (alluvial loam), twenty seeds each of weeds of Digitaria ciliaris, and Echinochloa crus-galli were uniformly mixed with the top 1 cm layer of soil and the surface was lightly pressed down. Seven days after sowing, an emulsifiable concentrate prepared according to Formulation Example 5 using the compound shown below was diluted with water, and the diluted solution was sprayed onto the soil surface at a rate of 100 liters per 10 ares. The amount of the active ingredient to be applied was equivalent to 7.5 g per 10 ares. Fourteen days after chemical application, the herbicidal effect was evaluated according to the same criteria as in Test Example 1.

[9] = test system: Echinochloa crus-galli var. formosensis; assay: Test Example 6: herbicidal effect test by application during growth period of paddy rice (low dose); details: Echinochloa crus-galli; 7.5 g per 10 ares; applied seven days after sowing, flooded pots; 14 days after application; read-out: weed inhibition rate
Method: as §4
Wagner pots with an area of […] were filled with paddy soil, followed by addition of water and incorporation of chemical fertilizer (N:P:K = 16:16:16), after which puddling was performed. After that, seeds of Echinochloa crus-galli var. formosensis, broad-leaved weeds (Monochoria vaginalis), and Scirpus juncoides were sown at a depth of 0 cm to 1 cm, 30 seeds each. Immediately after sowing, the pots were flooded and a water depth of approximately 3 cm was maintained. Subsequent management was conducted in a glass greenhouse. Seven days after sowing, an emulsifiable concentrate prepared according to Formulation Example 5 using the compound shown below was diluted with water, and a specified amount of the diluted solution was applied by dropper. The amount of the active ingredient to be applied was equivalent to 7.5 g per 10 ares. The test was conducted in duplicate for each chemical concentration group, and the herbicidal effect was evaluated 14 days after chemical application using the same criteria as in Test Example 1.

Digitaria ciliaris [10] = assay: Test Example 8: herbicidal effect test by stem and leaf treatment in upland field (low dose); details: 7.5 g per 10 ares, sprayed seven days after sowing, upland soil, 14 days after application; for inhibition at 75 g/ha: Digitaria ciliaris, read-out: weed inhibition rate
Method: as §4, §5

Scirpus juncoides [11] = assay: Test Example 1: herbicidal effect test by soil application in paddy rice; details: Schoenoplectiella juncoides, soil, 336 h; 120 g active ingredient per 10 ares; applied immediately after sowing, flooded pots; 14 days after application; read-out: weed inhibition rate
Summary of the method: as §1

Scirpus juncoides [12] = assay: Test Example 2: herbicidal effect test by application during growth period of paddy rice; details: Schoenoplectiella juncoides; 120 g per 10 ares; applied seven days after sowing, flooded pots; 14 days after application; read-out: weed inhibition rate
Summary of the method: as §2

Cc1cccc(C)c1CO[C@@H]1C[C@]2(C(C)C)O[C@@]1(C)C[C@@H]2Br [1-17, (1S,2R,4R,5S)-5-bromo-2-[(2,6-dimethylphenyl)methoxy]-1-methyl-4-isopropyl-7-oxabicyclo[2.2.1]heptane]
≥ 80%: pest or weed control at 1200 g/ha [1] | inhibition at 1200 g/ha [2] | inhibition at 1200 g/ha (Digitaria ciliaris [3]) | inhibition at 1200 g/ha (Echinochloa crus-galli [4]) | inhibition at 1200 g/ha (Digitaria ciliaris [5]) | inhibition at 1200 g/ha (Echinochloa crus-galli [6]) | inhibition at 75 g/ha [7] | inhibition at 75 g/ha (Echinochloa crus-galli [8])

COc1ccccc1CO[C@@H]1C[C@]2(C(C)C)O[C@@]1(C)C[C@@H]2Br [1-18, (1S,2R,4R,5S)-5-bromo-2-[(2-methoxyphenyl)methoxy]-1-methyl-4-isopropyl-7-oxabicyclo[2.2.1]heptane]
≥ 80%: pest or weed control at 1200 g/ha [1] | inhibition at 1200 g/ha [2] | inhibition at 1200 g/ha (Digitaria ciliaris [5]) | inhibition at 1200 g/ha (Echinochloa crus-galli [6]) | inhibition at 75 g/ha [7] | inhibition at 75 g/ha [9] | inhibition at 75 g/ha (Digitaria ciliaris [10]) | inhibition at 75 g/ha (Echinochloa crus-galli [8])

CC#CCO[C@@H]1C[C@]2(C(C)C)O[C@@]1(C)C[C@@H]2Br [1-674, (1S,2R,4R,5S)-5-bromo-2-but-2-ynoxy-1-methyl-4-isopropyl-7-oxabicyclo[2.2.1]heptane]
≥ 80%: pest or weed control at 1200 g/ha [1] | pest or weed control at 1200 g/ha (Scirpus juncoides [11]) | inhibition at 1200 g/ha [2] | inhibition at 1200 g/ha (Scirpus juncoides [12]) | inhibition at 1200 g/ha (Digitaria ciliaris [3]) | inhibition at 1200 g/ha (Echinochloa crus-galli [4]) | inhibition at 1200 g/ha (Digitaria ciliaris [5]) | inhibition at 1200 g/ha (Echinochloa crus-galli [6]) | inhibition at 75 g/ha [7] | inhibition at 75 g/ha [9]

COc1ccc(CO[C@@H]2C[C@]3(C(C)C)O[C@@]2(C)C[C@@H]3Br)cc1 [1-686, (1S,2R,4R,5S)-5-bromo-2-[(4-methoxyphenyl)methoxy]-1-methyl-4-isopropyl-7-oxabicyclo[2.2.1]heptane]
≥ 80%: inhibition at 1200 g/ha (Digitaria ciliaris [5]) | inhibition at 1200 g/ha (Echinochloa crus-galli [6]) | inhibition at 75 g/ha (Digitaria ciliaris [10]) | inhibition at 75 g/ha (Echinochloa crus-galli [8])

CC(C)[C@]12C[C@@H](OCc3ccccc3C(F)(F)F)[C@](C)(C[C@@H]1Br)O2 [1-700, (1S,2R,4R,5S)-5-bromo-l-methyl-4-isopropyl-2-[[2-(trifluoromethyl)phenyl]methoxy]-7-oxabicyclo[2.2.1]heptane]
≥ 80%: weed inhibition rate [1] | weed inhibition rate [2] | weed inhibition rate (Digitaria ciliaris [3]) | weed inhibition rate (Echinochloa crus-galli [4]) | weed inhibition rate (Digitaria ciliaris [5]) | weed inhibition rate (Echinochloa crus-galli [6]) | weed inhibition rate (Digitaria ciliaris [10])

CC(C)[C@]12C[C@@H](OCc3ccccc3C(=O)O)[C@](C)(C[C@@H]1Br)O2 [1-706, 2-[[(1S,2R,4R,5S)-5-bromo-1-methyl-4-isopropyl-7-oxabicyclo[2.2.1]heptan-2-yl]oxymethyl]benzoic acid]
≥ 80%: inhibition at 1200 g/ha (Digitaria ciliaris [5]) | inhibition at 1200 g/ha (Echinochloa crus-galli [6]) | inhibition at 75 g/ha (Digitaria ciliaris [10]) | inhibition at 75 g/ha (Echinochloa crus-galli [8])

COC(=O)c1ccccc1CO[C@@H]1C[C@]2(C(C)C)O[C@@]1(C)C[C@@H]2Br [1-709, methyl 2-[[(1S,2R,4R,5S)-5-bromo-1-methyl-4-isopropyl-7-oxabicyclo[2.2.1]heptan-2-yl]oxymethyl]benzoate]
≥ 80%: inhibition at 1200 g/ha (Digitaria ciliaris [5]) | inhibition at 1200 g/ha (Echinochloa crus-galli [6]) | inhibition at 75 g/ha (Digitaria ciliaris [10]) | inhibition at 75 g/ha (Echinochloa crus-galli [8])

CC(C)[C@]12C[C@@H](OCC3CCCCC3)[C@](C)(C[C@@H]1I)O2 [1-736, (1R,2S,4S,5R)-5-(cyclohexylmethoxy)-2-iodo-1-isopropyl-4-methyl-7-oxabicyclo[2.2.1]heptane]
≥ 80%: pest or weed control at 1200 g/ha [1] | pest or weed control at 1200 g/ha (Scirpus juncoides [11]) | inhibition at 1200 g/ha [2] | inhibition at 1200 g/ha (Scirpus juncoides [12]) | inhibition at 1200 g/ha (Digitaria ciliaris [3]) | inhibition at 1200 g/ha (Echinochloa crus-galli [4]) | inhibition at 1200 g/ha (Digitaria ciliaris [5]) | inhibition at 1200 g/ha (Echinochloa crus-galli [6]) | inhibition at 75 g/ha [7] | inhibition at 75 g/ha [9]

CCC[C@]1(O)C[C@]2(C)O[C@@]1(C(C)C)C[C@H]2OCc1ccccc1F [1-934, (1R,2S,4S,5R)-5-[(2-fluorophenyl)methoxy]-1-isopropyl-4-methyl-2-propyl-7-oxabicyclo[2.2.1]heptan-2-ol]
≥ 80%: inhibition at 1200 g/ha [2] | inhibition at 1200 g/ha (Digitaria ciliaris [5]) | inhibition at 1200 g/ha (Echinochloa crus-galli [6]) | inhibition at 75 g/ha (Echinochloa crus-galli [8])

CC(C)[C@@]12C[C@H](OCc3ccccc3F)[C@@](C)(C[C@H]1Br)O2 [1-1028, (1R,2S,4S,5R)-5-bromo-2-[(2-fluorophenyl)methoxy]-1-methyl-4-isopropyl-7-oxabicyclo[2.2.1]heptane]
≥ 80%: inhibition at 1200 g/ha (Digitaria ciliaris [5]) | inhibition at 1200 g/ha (Echinochloa crus-galli [6]) | inhibition at 75 g/ha (Echinochloa crus-galli [8])

CC(C)[C@@]12C[C@H](OCc3ccccc3F)[C@@](C)(C[C@H]1C)O2 [1-1221, (1R,2S,4S,5R)-2-[(2-fluorophenyl)methoxy]-1,5-dimethyl-4-isopropyl-7-oxabicyclo[2.2.1]heptane]
≥ 80%: inhibition at 1200 g/ha (Digitaria ciliaris [5]) | inhibition at 75 g/ha (Digitaria ciliaris [10])

CC(C)[C@@]12C[C@H](OCc3ccccc3F)[C@@](C)(C[C@@H]1C)O2 [1-1222, (1R,2S,4S,5S)-2-[(2-fluorophenyl)methoxy]-1,5-dimethyl-4-isopropyl-7-oxabicyclo[2.2.1]heptane]
≥ 80%: inhibition at 1200 g/ha (Echinochloa crus-galli [6]) | inhibition at 75 g/ha (Echinochloa crus-galli [8])

From patent EP4707280A1, “1,4-CINEOLE DERIVATIVE AND INTERMEDIATE THEREOF, HERBICIDE CONTAINING SAID DERIVATIVE AS ACTIVE INGREDIENT, METHOD FOR USING HERBICIDE, AND METHOD FOR PREPARING AGROCHEMICAL COMPOSITION” (HOKKO CHEMICAL INDUSTRY CO., LTD., priority 2023, dated 2024)
